The record followed here is PMC6272171 (2015).

For assay [1], the system named is dsDNA (DNA, duplex) GGGAGGTTTCGC/GCGAAACCTCCC
The assay is described as follows: UV melting, 260 nm. The following applies: 100 mM KCl, 50 mM Tris-HCl pH 7.4, same value in NaCl.

Assay [2] has as its system a-coreTT (DNA, G4) AGGGTTAGGGTTAGGGTTAGGGTT
The assay is described as follows: UV-Vis titration, Scatchard. The following applies: 100 mM KCl; 50 mM Tris-HCl pH 7.4, 25 °C.

Assay [3] relates to c-kit (DNA, G4) AGGGAGGGCGCTGGGAGGAGGAGGG
The assay is described as follows: UV-Vis titration, Scatchard. The following applies: 100 mM KCl; 50 mM Tris-HCl pH 7.4, 25 °C.

The test system of assay [4] is c-myc (DNA, G4) TGAGGGTGGGGAGGGTGGGGAA
The assay is described as follows: UV-Vis titration, Scatchard. The following applies: 100 mM KCl; 50 mM Tris-HCl pH 7.4, 25 °C.

Assay [5] relates to dsDNA (DNA, duplex) GGGAGGTTTCGC/GCGAAACCTCCC
In words: UV-Vis titration, Scatchard. The following applies: 100 mM KCl; 50 mM Tris-HCl pH 7.4, 25 °C; 0.60 ± 0.08 in 100 mM NaCl.

In assay [6] the test system is a-core (DNA, G4) AGGGTTAGGGTTAGGGTTAGGG
In words: UV-Vis titration, Scatchard. The following applies: 50 mM Tris-HCl pH 7.4, 25 °C.

The test system of assay [7] is TBA (DNA, G4) GGTTGGTGTGGTTGG
The assay is described as follows: UV-Vis titration, Scatchard. The following applies: 100 mM KCl; 50 mM Tris-HCl pH 7.4, 25 °C.

Assay [8] relates to a-core (DNA, G4) AGGGTTAGGGTTAGGGTTAGGG
In words: CD melting, 290 nm. The following applies: 50 mM Tris-HCl pH 7.4, 3.0 µM compound, 1.5 µM DNA.

Assay [9] concerns F21T (DNA, G4) GGGTTAGGGTTAGGGTTAGGG
In words: FRET melting. The following applies: 150 mM KCl; 100 mM Tris-HCl pH 7.4; 0.4 µM compound, 0.2 µM F21T.

For assay [10], the system named is a-coreTT (DNA, G4) AGGGTTAGGGTTAGGGTTAGGGTT
The assay is described as follows: CD melting, 290 nm. The following applies: 100 mM KCl; 50 mM Tris-HCl pH 7.4; 3.0 µM compound, 1.5 µM DNA.

In assay [11] the test system is c-myc (DNA, G4) TGAGGGTGGGGAGGGTGGGGAA
In words: CD melting, 262 nm. The following applies: 5 mM KCl; 50 mM Tris-HCl pH 7.4; 3.0 µM compound, 1.5 µM DNA.

Assay [12] deals with c-kit (DNA, G4) AGGGAGGGCGCTGGGAGGAGGAGGG
The assay is described as follows: CD melting, 262 nm. The following applies: 20 mM KCl; 50 mM Tris-HCl pH 7.4; 3.0 µM compound, 1.5 µM DNA.

Assay [13] deals with TBA (DNA, G4) GGTTGGTGTGGTTGG
The assay is described as follows: CD melting, 290 nm. The following applies: 100 mM KCl; 50 mM Tris-HCl pH 7.4; 3.0 µM compound, 1.5 µM DNA.

`CN(C)CCCN1C(=O)c2ccc3c4c(ccc(c24)C1=O)C(=O)N(CCCN(C)C)C3=O`: the “∆Tm” value stood at 12 °C in [1] (2:1 ligand:DNA), 5 °C in assay [8] (100 mM KCl) and 1 °C in assay [8] (100 mM NaCl). The K in assay [2] is 1.9 ± 0.3 × 10^6 M^-1; in [3] it was 0.74 ± 0.05 × 10^6 M^-1; in [4], 1.5 ± 0.2 × 10^6 M^-1; in assay [5] it was 0.60 ± 0.04 × 10^6 M^-1; in assay [6] (100 mM KCl) it was 1.6 ± 0.2 × 10^6 M^-1; in assay [6] (100 mM NaCl), 0.73 ± 0.09 × 10^6 M^-1. For the same compound, in assay [7], the K was 0.49 ± 0.04 × 10^6 M^-1.
On to `CN1CCCNC(=O)c2ccc(cc2)C(=O)NCCCN(C)CCCN2C(=O)c3ccc4c5c(ccc(c35)C2=O)C(=O)N(CCC1)C4=O`, for which, in assay [9], the Tm increase is 11 °C. Moreover, the “∆Tm” value in assay [10] came out at 18 °C; in assay [11] it was 15 °C; in [12] it was 11 °C; in [1] (2:1 ligand:DNA in table (text: 1-fold)), 0.3 °C; in assay [13], 11 °C; in assay [8] (100 mM KCl), 15 °C. The K in assay [2] is listed as 6.1 ± 0.4 × 10^6 M^-1; in [3], 1.9 ± 0.18 × 10^6 M^-1; in [4], 4.0 ± 0.3 × 10^6 M^-1; in assay [6] (100 mM KCl) it was 10 ± 0.5 × 10^6 M^-1; in assay [6] (100 mM NaCl) it was 1.0 ± 0.04 × 10^6 M^-1; in assay [7], 3.5 ± 0.2 × 10^6 M^-1.
